Measurements reported in publication PMC11009412, “Pathogenic mutations of human phosphorylation sites affect protein–protein interactions” (Nature Communications, 2024).
“Also recorded” adds a separate entry of the source.

Legend:
[1] = tested on: BirA*-FLAG-GATAD1 variants in Flp-In-293 cells; assay: BioID proximity labelling of full-length GATAD1 variants (SILAC); type: cell-based, human; details: GATAD1 WT vs S102P, significant proteins only; for Log2_Ratio.H.L.normalized.WT_S102P_forward: forward experiment (label swap performed, sign inverted against the H/L ratio); for Log2_Ratio.H.L.normalized.WT_S102P_forward / Log2_Ratio.H.L.normalized.WT_S102P_reverse: log2 of normalized H/L ratio; for Ratio.H.L.normalized.WT_S102P_forward: forward experiment; for Log2_Ratio.H.L.normalized.WT_S102P_reverse / Ratio.H.L.normalized.WT_S102P_reverse: reverse experiment
Excerpt: The GATAD1 gene variants were ordered in a pTwist ENTR Kozak vector from Twist Bioscience. The genes were then transferred to a pDEST_pcDNA5_BirA_FLAG_Nterm vector[97] using the Gateway Clonase II system (Thermo Fisher Scientific). The resulting vectors, pEXPR_GATAD1-WT_N-term_BirA_FLAG, pEXPR_GATAD1-S102P_N-term_BirA_FLAG, pEXPR_GATAD1-S102D_N-term_BirA_FLAG, and pEXPR_GATAD1-S102A_N-term_BirA_FLAG, were used to generate tetracycline-inducible stable Flp-In^TM-293 T-REx cells. A 6-well plate was co-transfected with 0.5 µg of the pEXPR plasmid and 1 µg of the pOG44 Flp-recombinase expression vector (Thermo Fisher Scientific) using 4.5 µg of PEI (Polysciences) as a transfection reagent. The following day, the cells were trypsinized and transferred to a 10 cm dish containing DMEM supplemented with 10% FCS and 200 µg/ml hygromycin B (Invivogen) for selection. The cells were cultured for approximately 18 days with media exchange every 3 days until visible colonies were observed. After around 18 days, the colonies were trypsinized and transferred to another 10 cm dish for further characterization and experiments.
Stable Flp-In^TM-293 cell lines expressing GATAD1 variants were cultured using SILAC light (Lys0, Arg0) and SILAC heavy (Lys8, Arg10) media, as explained in the cell culture section. After full labeling, cells were split into 15 cm dishes and were treated with 1 μg/mL tetracycline for 24 h to induce the expression of GATAD1. After the induction period, cells were incubated with 50 μM biotin overnight for proximity biotinylation. As a control, wild-type GATAD1 cells, without biotin or tetracycline addition, were used. Samples were multiplexed, as shown in Supplementary Fig. 41A with both forward and reverse label swap (n = 2). Cells were then lysed in lysis buffer (50 mM Tris-HCl pH 7.5, 150 mM NaCl, 1% Triton X-100, 1 mM EDTA, 1 mM EGTA, 0.1% SDS) with freshly added protease inhibitors and 1% sodium deoxycholate. To digest the excess DNA, 1 μl of Benzonase was added, and the samples were incubated for 20 min at 37 °C. Biotinylated proteins were enriched for 3 h at 4 °C using streptavidin-sepharose beads (GE Cat# 17-5113-01). Beads were pre-washed twice with 0.01% BSA and twice with lysis buffer. After enrichment, the beads were washed one time with lysis buffer, two times with washing buffer (50 mM HEPES-KOH pH 8.0, 100 mM KCl, 10% glycerol, 2 mM EDTA, 0.1% NP-40), and six times with 50 mM ammonium bicarbonate. Beads were resuspended in ammonium bicarbonate, and an on-bead protein digest with 1 μg of trypsin followed overnight. The next day, the digested proteins were transferred to a fresh tube and were incubated with 10 mM DTT for 30 min at 37 °C and with 55 mM iodoacetamide for 20 min at 37 °C in the dark. Samples were desalted with StageTips.
Peptides were separated using reversed-phase liquid chromatography (EASY nLC II 1200, Thermo Fisher Scientific) with self-made C18 microcolumns (20 cm long) packed with ReproSil-Pur C18-AQ 1.9 μm resin (Dr. Maisch, cat# r119.aq.0001). The chromatography system was coupled online to the electrospray ion source (Proxeon) of an Orbitrap Exploris 480 mass spectrometer (Thermo Fisher Scientific). The mobile phase consisted of buffer A (0.1% formic acid and 5% acetonitrile) and buffer B (0.1% formic acid and 80% acetonitrile). Peptides were eluted using a gradient with increasing concentrations of buffer B over 110 minutes, at a flow rate of 250 nl/min. Mass spectrometry data was acquired in data-dependent mode with settings for one full scan (resolution: 60,000; m/z range: 350–1600; normalized AGC target: 300%; maximum injection time: 10 ms), followed by top 20 MS/MS scans using higher-energy collisional dissociation (resolution: 15,000; m/z range: 200–2000; normalized AGC target: 100%; maximum injection time: 120 ms; isolation width: 1.3 m/z; normalized collision energy: 28%).
Raw files were analyzed with MaxQuant, version 2.0.3.0. […]

[2] = target: T1, 14-3-3 epsilon (YWHAE) (Homo sapiens, UniProt P62258); assay: Isothermal titration calorimetry (ITC) of GATAD1 peptides with 14-3-3ε; type: binding; details: 18 °C, 400 µM peptide in syringe, 25 µM 14-3-3ε in chamber, 20 mM HEPES pH 7.0, 150 mM NaCl, 2 mM DTT
T1 construct: residues 1 and 236-255 are disordered and therefore not visible in the electron density; GST (N, cleaved yes); made in house; host or cells: Escherichia coli C41 (DE3)
T1 sequence (P62258 1-255): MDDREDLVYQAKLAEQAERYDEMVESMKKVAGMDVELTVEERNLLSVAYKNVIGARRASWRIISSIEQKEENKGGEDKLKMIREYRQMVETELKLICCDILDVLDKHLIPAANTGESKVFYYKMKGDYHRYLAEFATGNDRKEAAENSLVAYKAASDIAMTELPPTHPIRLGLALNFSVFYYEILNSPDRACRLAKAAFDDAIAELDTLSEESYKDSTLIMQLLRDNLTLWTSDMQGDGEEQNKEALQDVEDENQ
Protocol: The 14-3-3ε (YWHAE) cDNA was purchased from Twist Bioscience in the pTwist Chlor High Copy vector and cloned into the pGEX6P1 plasmid (GE Healthcare) for recombinant expression as a GST-fusion protein followed by a Prescission protease cleavage site. The plasmid was freshly transformed into Escherichia coli C41 (DE3) cells. Cultures were grown in terrific broth supplemented with ampicillin (100 μg/ml) at 37 °C and 80 rpm until an optical density at 600 nm of 0.7 was reached. […] Cells were harvested by centrifugation at 4000 g and frozen at −20 °C.
Following resuspension in lysis buffer (50 mM HEPES/NaOH pH 7.5, 500 mM NaCl and 3 mM Dithiothreitol (DTT)) supplemented with 1 mg deoxyribonuclease I (DNaseI, Roche) and protease inhibitor 4-(2-Aminoethyl) benzenesulfonyl fluoride hydrochloride S7(AEBSF), cells were disrupted using a microfluidizer (Microfluidics). The cell extract was centrifuged at 55,000 g for 45 min at 4 °C to remove insoluble parts. The cleared supernatant was applied onto a prepacked Glutathione Sepharose 4B column (Cytiva) equilibrated in the lysis buffer. The column was extensively washed with lysis buffer. To cleave off the GST tag, 1 mg PreScission protease was diluted in 5 ml OCC buffer (50 mM HEPES/NaOH pH 7.5, 150 mM NaCl, and 3 mM DTT), applied to the column material, and incubated overnight at 4 °C. Cleaved 14-3-3ε protein was eluted from the column using OCC buffer, concentrated and loaded onto an 16/60 S200 column (Cytiva) equilibrated in SEC buffer (20 mM HEPES/NaOH pH 7.5, 150 mM NaCl and 2 mM DTT). Pure and homogenous 14-3-3ε was concentrated to 13 mg/ml, flash-frozen in liquid nitrogen, and stored at −80 °C until further use.
GATAD1 peptides used in these experiments were obtained from JPT peptide technologies with an N-terminus in amine and a C-terminus in amide form with 95% purity. ITC experiments were performed using a PEAQ-ITC microcalorimeter (Malvern). All titrations were performed at 18 °C with 400 µM peptide in the syringe and 25 µM 14-3-3ε in the reaction chamber. The protein and the titration components were dissolved in a buffer containing 20 mM HEPES pH 7.0, 150 mM NaCl, and 2 mM DTT. Malvern software was used for data visualization and fitting. The raw ITC results can be found in Supplementary Fig. 42.

Row | Substance | Log2_Ratio.H.L.normalized.WT_S102P_forward [1] | Ratio.H.L.normalized.WT_S102P_forward [1] | Log2_Ratio.H.L.normalized.WT_S102P_reverse [1] | Ratio.H.L.normalized.WT_S102P_reverse [1] | Interaction with 14-3-3ε by ITC (in words) [2] | Interaction with 14-3-3ε by ITC (in words) ([2]; listed as non-phosphorylated wild-type peptide)
1 | PSME3 | 1.443 | 0.3677 | 1.216 | 2.3229 |  | 
2 | MGA | 1.435 | 0.3699 | 1.064 | 2.0912 |  | 
3 | LRNTKYKPAPAAEKK [GATAD1_Ser102Pro, GATAD1 15-mer with the disease-linked S102P mutation] |  |  |  |  | Neither the non-phosphorylated wild-type peptide nor the peptide with the disease-linked S102P mutation showed detectable binding; also recorded: do not interact | 
4 | ZC3H4 | 1.304 | 0.405 | 1.071 | 2.1009 |  | 
5 | LRNTKYKSAPAAEKK [GATAD1, wild-type non-phosphorylated GATAD1 15-mer; ITC form with C-terminus in amide form] |  |  |  |  | do not interact | Neither the non-phosphorylated wild-type peptide nor the peptide with the disease-linked S102P mutation showed detectable binding
6 | TPR | 1.211 | 0.4319 | 1.117 | 2.169 |  | 
7 | HDGFRP2 | 1.523 | 0.348 | 1.484 | 2.7966 |  | 
8 | LRNTKYKEAPAAEKK [S102E, phosphomimetic S102E mutant GATAD1 peptide] |  |  |  |  | do not interact | 
9 | NPM1 | 1.325 | 0.3991 | 1.034 | 2.0483 |  | 
10 | BCLAF1 | 1.402 | 0.3784 | 1.045 | 2.064 |  | 
11 | ZNF318 | 1.385 | 0.3829 | 1.241 | 2.3636 |  | 
12 | PSPGRQNSKAPKLTL [NCOA6, wild-type non-phosphorylated 15-mer] | 1.334 | 0.3966 | 1.3003 | 2.4628 |  | 
13 | PCF11 | 1.509 | 0.3515 | 1.2027 | 2.3017 |  | 
14 | MED1 | 1.28 | 0.4118 | 1.018 | 2.0257 |  | 
15 | BOD1L1 | 1.279 | 0.4121 | 1.335 | 2.5226 |  | 
16 | RBBP6 | 1.156 | 0.4486 | 1.0059 | 2.0082 |  | 
17 | NCOR1 | 1.327 | 0.3987 | 1.25 | 2.3792 |  | 
